Source: the NIST ThermoML archive (doi:10.1016/j.jct.2016.06.034)
Numbers after ± are expanded uncertainties.

Test: mn = molality of the nth substance listed, in mol/kg
Conditions: for mass density / electrical conductivity / speed of sound: 84.5 kPa, Liquid; for mass density: Vibrating tube method; for surface tension liquid-gas: platinum plate method; for electrical conductivity: Alternating current cell with electrodes; for speed of sound: Frequency=3 MHz, Sing-around technique in a fixed-path interferometer

CCCCCCCCCCn1cc[n+](C)c1.[Br-] [1-decyl-3-methylimidazolium bromide] + O
Conditions | electrical conductivity [S/m] | mass density [kg/m3] | speed of sound [m/s] | surface tension liquid-gas [mN/m]
303.15 K, m1 = 0.0095 | – | 996.005 ± 0.11 | – | –
303.15 K, m1 = 0.01379 | – | 996.169 ± 0.11 | – | –
303.15 K, m1 = 0.01652 | – | 996.273 ± 0.11 | – | –
303.15 K, m1 = 0.02179 | – | 996.475 ± 0.11 | – | –
303.15 K, m1 = 0.02615 | – | 996.639 ± 0.11 | – | –
303.15 K, m1 = 0.03106 | – | 996.825 ± 0.11 | – | –
303.15 K, m1 = 0.03338 | – | 996.912 ± 0.11 | – | –
303.15 K, m1 = 0.03819 | – | 997.092 ± 0.11 | – | –
303.15 K, m1 = 0.0406 | – | 997.186 ± 0.11 | – | –
303.15 K, m1 = 0.04332 | – | 997.276 ± 0.11 | – | –
303.15 K, m1 = 0.04614 | – | 997.377 ± 0.11 | – | –
303.15 K, m1 = 0.05515 | – | 997.672 ± 0.11 | – | –
303.15 K, m1 = 0.06396 | – | 997.957 ± 0.11 | – | –
303.15 K, m1 = 0.07815 | – | 998.413 ± 0.11 | – | –
303.15 K, m1 = 0.122 | – | 999.792 ± 0.11 | – | –
303.15 K, m1 = 0.1726 | – | 1001.35 ± 0.11 | – | –
303.15 K, m1 = 0.2247 | – | 1002.91 ± 0.11 | – | –
303.15 K, m1 = 0.2539 | – | 1003.77 ± 0.11 | – | –
308.15 K, m1 = 1e-05 | 0.000218 | – | – | –
308.15 K, m1 = 3e-05 | 0.000397 | – | – | –
308.15 K, m1 = 4e-05 | 0.000606 | – | – | –
308.15 K, m1 = 7e-05 | 0.000959 | – | – | –
308.15 K, m1 = 0.0001 | 0.00133 | – | – | –
308.15 K, m1 = 0.00013 | 0.00169 | – | – | –
308.15 K, m1 = 0.00017 | 0.00228 | – | – | –
308.15 K, m1 = 0.00024 | 0.0032 ± 0.0056 | – | – | –
308.15 K, m1 = 0.00039 | 0.0051 ± 0.0055 | – | – | –
308.15 K, m1 = 0.00069 | 0.00888 ± 0.0055 | – | – | –
308.15 K, m1 = 0.00098 | 0.0124 ± 0.0054 | – | – | –
308.15 K, m1 = 0.0014 | 0.0178 ± 0.0054 | – | – | –
308.15 K, m1 = 0.00242 | 0.0302 ± 0.0053 | – | – | –
308.15 K, m1 = 0.00326 | 0.0401 ± 0.0051 | – | – | –
308.15 K, m1 = 0.00348 | 0.0427 ± 0.0051 | – | – | –
308.15 K, m1 = 0.0063 | 0.0752 ± 0.0051 | – | – | –
308.15 K, m1 = 0.00691 | – | – | – | 46.2 ± 0.4
308.15 K, m1 = 0.00928 | 0.108 ± 0.005 | – | – | –
308.15 K, m1 = 0.0095 | – | 994.377 ± 0.11 | 1521.3 ± 1.2 | –
308.15 K, m1 = 0.01212 | 0.139 ± 0.005 | – | – | –
308.15 K, m1 = 0.01368 | – | – | – | 40.98 ± 0.34
308.15 K, m1 = 0.01379 | – | 994.536 ± 0.11 | 1522 ± 1.2 | –
308.15 K, m1 = 0.01499 | 0.169 ± 0.005 | – | – | –
308.15 K, m1 = 0.01652 | – | 994.638 ± 0.11 | 1522.4 ± 1.2 | –
308.15 K, m1 = 0.01731 | 0.193 ± 0.005 | – | – | –
308.15 K, m1 = 0.01851 | – | – | – | 39.3 ± 0.23
308.15 K, m1 = 0.02003 | 0.22 ± 0.0051 | – | – | –
308.15 K, m1 = 0.02179 | – | 994.831 ± 0.11 | 1523.2 ± 1.2 | –
308.15 K, m1 = 0.02313 | 0.25 ± 0.0052 | – | – | –
308.15 K, m1 = 0.0251 | – | – | – | 38.12 ± 0.21
308.15 K, m1 = 0.02573 | 0.275 ± 0.0053 | – | – | –
308.15 K, m1 = 0.02615 | – | 994.993 ± 0.11 | 1523.7 ± 1.2 | –
308.15 K, m1 = 0.0282 | 0.298 ± 0.0054 | – | – | –
308.15 K, m1 = 0.03065 | 0.321 ± 0.0056 | – | – | –
308.15 K, m1 = 0.03094 | – | – | – | 37.39 ± 0.21
308.15 K, m1 = 0.03106 | – | 995.17 ± 0.11 | 1524.4 ± 1.2 | –
308.15 K, m1 = 0.03312 | 0.343 ± 0.0057 | – | – | –
308.15 K, m1 = 0.03338 | – | 995.253 ± 0.11 | 1524.7 ± 1.2 | –
308.15 K, m1 = 0.03447 | – | – | – | 36.95 ± 0.21
308.15 K, m1 = 0.03589 | 0.367 ± 0.0058 | – | – | –
308.15 K, m1 = 0.03819 | – | 995.428 ± 0.11 | 1525.4 ± 1.2 | –
308.15 K, m1 = 0.03832 | 0.388 ± 0.006 | – | – | –
308.15 K, m1 = 0.04053 | 0.406 ± 0.006 | – | – | –
308.15 K, m1 = 0.0406 | – | 995.52 ± 0.11 | 1525.5 ± 1.2 | –
308.15 K, m1 = 0.04063 | – | – | – | 36.49 ± 0.2
308.15 K, m1 = 0.04223 | 0.419 ± 0.0059 | – | – | –
308.15 K, m1 = 0.04332 | – | 995.61 ± 0.11 | 1525.8 ± 1.2 | –
308.15 K, m1 = 0.04385 | 0.429 ± 0.0058 | – | – | –
308.15 K, m1 = 0.04569 | 0.439 ± 0.0057 | – | – | –
308.15 K, m1 = 0.04614 | – | 995.708 ± 0.11 | 1526 ± 1.2 | –
308.15 K, m1 = 0.0479 | – | – | – | 36.69 ± 0.21
308.15 K, m1 = 0.04793 | 0.449 ± 0.0057 | – | – | –
308.15 K, m1 = 0.04988 | 0.457 ± 0.0058 | – | – | –
308.15 K, m1 = 0.05063 | – | – | – | 37.17 ± 0.23
308.15 K, m1 = 0.05219 | – | – | – | 37.66 ± 0.22
308.15 K, m1 = 0.05236 | 0.466 ± 0.0058 | – | – | –
308.15 K, m1 = 0.05506 | – | – | – | 37.95 ± 0.21
308.15 K, m1 = 0.05515 | – | 995.996 ± 0.11 | 1526.1 ± 1.2 | –
308.15 K, m1 = 0.05533 | 0.477 ± 0.0059 | – | – | –
308.15 K, m1 = 0.05718 | 0.483 ± 0.006 | – | – | –
308.15 K, m1 = 0.05941 | 0.492 ± 0.0061 | – | – | –
308.15 K, m1 = 0.06163 | 0.498 ± 0.0062 | – | – | –
308.15 K, m1 = 0.06382 | 0.507 ± 0.0064 | – | – | –
308.15 K, m1 = 0.06396 | – | 996.274 ± 0.11 | 1526.1 ± 1.2 | –
308.15 K, m1 = 0.07 | – | – | – | 38.27 ± 0.2
308.15 K, m1 = 0.07815 | – | 996.719 ± 0.11 | 1526 ± 1.2 | –
308.15 K, m1 = 0.09792 | – | – | – | 38.41 ± 0.21
308.15 K, m1 = 0.122 | – | 998.067 ± 0.11 | 1525.6 ± 1.2 | –
308.15 K, m1 = 0.1694 | – | – | – | 38.44 ± 0.21
308.15 K, m1 = 0.1726 | – | 999.588 ± 0.11 | 1525.1 ± 1.2 | –
308.15 K, m1 = 0.2247 | – | 1001.11 ± 0.11 | 1524.7 ± 1.2 | –
308.15 K, m1 = 0.2268 | – | – | – | 38.2 ± 0.21
308.15 K, m1 = 0.2539 | – | 1001.95 ± 0.11 | 1524.4 ± 1.2 | –
